In ChEMBL document CHEMBL5500343, “Activity refinement of aryl amino acetamides that target the P. falciparum STAR-related lipid transfer 1 protein” (Eur J Med Chem, 2024):
Values after ≈ are worked out from the molar mass of the structure shown.

What was measured:
[1] = tested on: Plasmodium falciparum; test: Antimalarial activity against asexual blood stage Plasmodium falciparum 3D7 assessed as reduction in parasite growth incubated for 72 hrs by LDH assay; format: functional, organism-based; conditions: 3D7, 72 h
[2] = tested on: HepG2; test: Cytotoxicity against human HepG2 cells assessed as reduction in cell viability incubated for 48 hrs by Cell Titer-Glo assay; format: functional, cell-based; conditions: HepG2, 48 h
[3] = tested on: Plasmodium falciparum; test: Antimalarial activity against KAF-156 resistant Plasmodium falciparum Dd2 harboring CARL I1139K mutant assessed as reduction in parasite growth incubated for 72 hrs by [3H]-hypoxanthine incorporation assay; format: functional, organism-based
[4] = tested on: Plasmodium falciparum; test: Antimalarial activity against Plasmodium falciparum Dd2 assessed as reduction in parasite growth incubated for 72 hrs by [3H]-hypoxanthine incorporation assay; format: functional, organism-based
[5] = tested on: Plasmodium falciparum; test: Antimalarial activity against MMV-048 resistant Plasmodium falciparum Dd2 harboring PI4K S743T mutant assessed as reduction in parasite growth incubated for 72 hrs by [3H]-hypoxanthine incorporation assay; format: functional, organism-based
[6] = tested on: Plasmodium falciparum; test: Antimalarial activity against MMV006833 resistant Plasmodium falciparum 3D7 assessed as reduction in parasite growth incubated for 72 hrs by LDH assay; format: functional, organism-based; conditions: 3D7, 72 h
[7] = tested on: Plasmodium falciparum; test: Antimalarial activity against MMV006833 resistant Plasmodium falciparum 3D7 harboring START1 N330K mutant assessed as reduction in parasite growth incubated for 72 hrs by LDH assay; format: functional, organism-based; conditions: 3D7, 72 h
[8] = tested on: Plasmodium falciparum; test: Antimalarial activity against MMV006833 resistant Plasmodium falciparum 3D7 harboring START1 N309K mutant assessed as reduction in parasite growth incubated for 72 hrs by LDH assay; format: functional, organism-based; conditions: 3D7, 72 h
[9] = tested on: Plasmodium falciparum; test: Binding affinity to recombinant Plasmodium falciparum START1 assessed as change in entropy at 10 uM by isothermal titration calorimetry
[10] = Binding affinity to recombinant Plasmodium falciparum START1 assessed as dissociation constant by isothermal titration calorimetry
[11] = Lipophilicity, LogD of compound in 1-Octanol and PBS at pH 7.4 at 7.5 uM incubated for 2 hrs shake flask method based LC-MS/MS analysis; format: physicochemical; conditions: 1-octanol/PBS
[12] = tested on: Plasmodium falciparum; test: Binding affinity to recombinant Plasmodium falciparum START1 assessed as change in enthalpy at 10 uM by isothermal titration calorimetry
[13] = Kinetic aqueous solubility of the compound in PBS at pH 7.4 incubated for 2 hr under shaking condition by shake flask based UV reader plate analysis; format: physicochemical; conditions: read-out: Kinetic_solubility
[14] = Intrinsic clearance in human liver microsomes at 1 uM incubated upto 60 mins in presence of NADPH by LC-MS/MS analysis; format: ADME, Microsome; conditions: read-out: CLH
[15] = Intrinsic clearance in rat hepatocyte measured per 10^6 cells at 1 uM incubated upto 90 mins by LC-MS/MS analysis; format: ADME, cell-based; conditions: rat hepatocytes, read-out: CLH
[16] = tested on: Plasmodium berghei; test: Antimalarial activity against Plasmodium berghei ANKA infected in mouse assessed as reduction of parasitaemia at 30 mg/kg,po bid administrated for 72 hrs and measured after 24 hrs post last dose by Giemsa staining based microscopic analysis relative to control; format: functional; design: scale not given: the % may be the effect or the level left; conditions: time 96 hrs

SMILES	EC50 [1] [µM]	EC50 [2] [µM]	further results
Cc1cc(Cl)c(S(=O)(=O)N2CCOCC2)cc1NCC(=O)NC1CCCCC1	1	> 40	
CC1(C)c2nc(-c3ccc(F)cc3)c(Nc3ccc(F)cc3)n2CCN1C(=O)CN [GANAPLACIDE]			EC50 [3]: 1.53 µM; EC50 [4]: 0.008 µM
O=C(COc1ccc(Cl)c(S(=O)(=O)N2CCOCC2)c1)Nc1ccc(F)c(Cl)c1	0.81	> 40	
COC1CCN(S(=O)(=O)c2cc(NCC(=O)Nc3ccc(F)c(Cl)c3)ccc2Cl)CC1	1.5	> 40	
CN1CCN(S(=O)(=O)c2cc(NCC(=O)Nc3ccc(F)c(Cl)c3)ccc2Cl)CC1	> 10	> 40	
O=C(CNc1ccc(Cl)c(S(=O)(=O)N2CCOCC2)c1)Nc1cncc(Cl)c1	0.41	> 40	
O=C(CNc1ccc(Cl)c(S(=O)(=O)N2CCOCC2)c1)Nc1ccnc(Cl)c1	1.1	> 40	
O=C(CNc1ccc(Cl)c(S(=O)(=O)N2CCOCC2)c1)Nc1cc(Cl)ccn1	2.8	> 40	
CS(=O)(=O)c1ccc(-c2cnc(N)c(-c3ccc(C(F)(F)F)nc3)c2)cc1 [MMV-048]			EC50 [5]: 0.12 µM; EC50 [4]: 0.016 µM
CCC(Nc1ccc(Cl)c(S(=O)(=O)N2CCOCC2)c1)C(=O)Nc1ccc(F)c(Cl)c1 (racemic)	0.011	24.5	
Cc1cc(Cl)c(S(=O)(=O)N2CCOCC2)cc1NCC(=O)Nc1ccc(F)c(Cl)c1	0.13	> 40	
Cc1ccc(NCC(=O)Nc2ccccc2)cc1S(=O)(=O)N1CCOCC1	2.1	> 40	
O=C(CNc1ccc(Cl)c(S(=O)(=O)N2CCC(Cc3ccccc3)CC2)c1)Nc1ccc(F)c(Cl)c1	0.27	14	
COc1ccc(NCC(=O)Nc2ccc(F)c(Cl)c2)cc1S(=O)(=O)N1CCOCC1	0.43	> 40	
O=C(Nc1ccc(F)c(Cl)c1)C(Cc1ccccc1)Nc1ccc(Cl)c(S(=O)(=O)N2CCOCC2)c1 (racemic)	1.4	15.5	
N#Cc1ccc(NCC(=O)Nc2ccc(F)c(Cl)c2)cc1S(=O)(=O)N1CCOCC1	0.75	> 40	
O=C(CNc1ccc(Cl)c(S(=O)(=O)N2CCOCC2)c1)Nc1cccc(Cl)c1	0.28	> 40	
CC(C)[C@H](Nc1ccc(Cl)c(S(=O)(=O)N2CCOCC2)c1)C(=O)Nc1ccc(F)c(Cl)c1	0.033	30.3	EC50 [6]: 0.005 µM; EC50 [7]: 2.1 µM; EC50 [8]: 2.4 µM
Cc1cc(Cl)c(S(=O)(=O)N2CCOCC2)cc1OCC(=O)Nc1ccc(F)c(Cl)c1	0.3	> 40	
C[C@H](Nc1ccc(Cl)c(S(=O)(=O)N2CCOCC2)c1)C(=O)Nc1ccc(F)c(Cl)c1	0.022	> 40	-TdeltaS [9]: 7.8 kcal/mol; EC50 [6]: 0.003 µM; EC50 [7]: 1.7 µM; Kd [10]: 0.066 µM; logD at 2 h, 7.5 µM [11]: 3.9; deltaH [12]: -17.7 kcal/mol; solubility kinetic at 2 h [13]: 14 µM (≈ 6.67 µg/mL); EC50 [8]: 2.1 µM; microsomal CLint at 1 µM [14]: > 462 µL/min/mg; hepatocyte CLint at 1 µM [15]: > 92 µL/min/1e6 cells
C[C@@H]1CC[C@H]2[C@@H](C)C(=O)O[C@@H]3O[C@@]4(C)CC[C@@H]1[C@]32OO4 [ARTEMISININ]			Activity [16]: >98%
C[C@H](Nc1ccc(Cl)c(S(=O)(=O)N2CCOCC2)c1)C(=O)Nc1cncc(Cl)c1	0.054	> 40	-TdeltaS [9]: 4.8 kcal/mol; EC50 [6]: 0.016 µM; EC50 [7]: 2.6 µM; Kd [10]: 0.119 µM; logD at 2 h, 7.5 µM [11]: 3.1; deltaH [12]: -14.4 kcal/mol; solubility kinetic at 2 h [13]: 77 µM (≈ 35.4 µg/mL); EC50 [8]: 7.8 µM; microsomal CLint at 1 µM [14]: > 462 µL/min/mg; hepatocyte CLint at 1 µM [15]: 50 µL/min/1e6 cells
Cc1ccc(NCC(=O)Nc2ccc(F)c(Cl)c2)cc1S(=O)(=O)N1CCOCC1	0.27		
